The values that follow come from paper PMC2949467 (Journal of inorganic biochemistry, 2010).

SMILES strings stand for the structures.

For data set [1], the system named is T. cruzi epimastigotes (Tulahuen 2 strain). The data set is described as follows: In vitro activity on T. cruzi epimastigotes. Conditions: Trypanosoma cruzi, 120 h, read-out: PGI25μM (%) (epimastigote): percentage of growth inhibition of T. cruzi epimastigote cells. It counts as cell-based.
In a further data set the test system is T. cruzi. Conditions: cited from earlier work.

A word on the inhibition: it is the relative decrease from the control value, in per cent. As to `O=P(O)(O)C(O)(Cc1cccnc1)P(=O)(O)O` [NaRis, (1-hydroxy-1-phosphono-2-pyridin-3-yl-ethyl)phosphonate], the inhibition at 25 µM in data set [1] was determined as 19%. In addition, in the data set on T. cruzi, the “Parasitemia in infected mice” value is “significantly reduces the parasitemia” and the “Toxicity in infected mice” value is reported as “no toxicity”. For the same compound, the Animal survival entry with T. cruzi (infected mice) is reported as “increases the animal survival”.
